# Measurements taken from article PMC10368209, “Indolo[2,3-e]benzazocines and indolo[2,3-f]benzazonines and their copper(II) complexes as microtubule destabilizing agents” (Dalton Transactions (Cambridge, England : 2003), 2023).
# Where two headings read alike, the source gives them in different places.
# How the values were obtained:
# [1] = tested on: normal human embryonal lung fibroblast cells (MRC-5); assay: In vitro cytotoxicity MTT assay; type: cell-based; settings: Homo sapiens, MRC5, 72 h incubation
# From the text: (§1) Four cell lines were used in this study: the doxorubicin-sensitive Colo205 (CCL-222, ATCC, Manassas, VA, USA) human colon adenocarcinoma cell line; the doxorubicin-resistant Colo320/MDR-LRP expressing P-glycoprotein (P-gp, ABCB1) (MDR1)-LRP (CCL-220.1, ATCC) human colon adenocarcinoma cell line; the hormone-responsive MCF-7 breast cancer cell line and the normal MRC-5 human embryonal lung fibroblast cell line (CCL-171, ATCC). The human cancer cell lines were purchased from LGC Promochem (Teddington, UK), and the MRC-5 cell line is a Sigma-Aldrich (Merck KGaA, Darmstadt, Germany) product. The Colo205 and Colo320 cell lines were cultured in RPMI 1640 medium supplemented with 10% fetal bovine serum (FBS), 2 mM L-glutamine, 1 mM Na-pyruvate and 10 mM HEPES. The MCF-7 and MRC-5 cells were cultured in Eagle's Minimal Essential Medium (EMEM) containing 4.5 g L^−1 of glucose and supplemented with a non-essential amino acid mixture, a selection of vitamins and 10% FBS. All cell lines were incubated at 37 °C, 5% CO2, 95% air atmosphere. The cells were detached with Trypsin-Versene (EDTA) solution for 5 min at 37 °C.
# (§2) Prior to the cytotoxicity assays 10 mM stock solutions of the tested compounds were prepared in DMSO. These stock solutions were diluted with the culture medium (EMEM or RPMI 1640), and twofold serial dilutions of the compounds were prepared in 100 μL of the appropriate medium. […] The positive control was doxorubicin (Merck), and CuCl2 was also tested. All cancer cells were treated with Trypsin-Versene (EDTA) solution. A cell density of 1 × 10^4 cells was adjusted for the colon adenocarcinoma cells in 100 μL of RPMI 1640 medium and were added to each well, except for the medium control wells. The final volume was 200 μL in the wells containing compounds and cells. The MCF-7 and MRC-5 cells were seeded overnight prior to the assay. The following day, the serial dilution of the compounds were made in separate plates and added to the cells. The culture plates were incubated at 37 °C for 72 h; and at the end of the incubation period, 20 μL of 5 mg mL^−1 3-(4,5-dimethylthiazol-2-yl)-2,5-diphenyltetrazolium bromide (MTT) solution was added to each well and incubated for 4 h at 37 °C. The plates were further incubated at 37 °C overnight following the addition of 100 μL of sodium dodecyl sulfate (SDS) solution (10% in 0.01 M HCl). The optical density (OD) was measured at 450 nm (ref. 620 nm) with a Multiscan EX ELISA reader to follow the cell growth. Inhibition of cell growth (expressed as IC50: inhibitory concentration that reduces by 50% the growth of the cells exposed to the tested compounds) was determined from the sigmoid curve, where 100 − ((ODsample − ODmedium control)/(ODcell control − ODmedium control)) × 100 values were plotted against the logarithm of compound concentrations. The sigmoidal dose–response model (comparing variable and fixed slopes) of the GraphPad Prism software[88] was used to fit the curves. The IC50 values are averages from at least 3 independent experiments.
# [2] = tested on: doxorubicin-resistant Colo320 human colon adenocarcinoma cell line; assay: In vitro cytotoxicity MTT assay; type: cell-based; settings: for IC50: Homo sapiens, COLO 320, 72 h incubation, MTT
# From the text: as §1, §2
# [3] = tested on: Colo205 human colon adenocarcinoma cell line; assay: In vitro cytotoxicity MTT assay; type: cell-based; settings: for IC50: Homo sapiens, COLO 205, 72 h incubation, MTT
# From the text: as §1, §2
# [4] = tested on: MCF-7 breast cancer cells; assay: In vitro cytotoxicity MTT assay; type: cell-based, human; settings: for IC50: Homo sapiens, MCF7, 72 h incubation, MTT
# Description: The human cancer cell lines were purchased from LGC Promochem (Teddington, UK), and the MRC-5 cell line is a Sigma-Aldrich (Merck KGaA, Darmstadt, Germany) product. […] The MCF-7 and MRC-5 cells were cultured in Eagle's Minimal Essential Medium (EMEM) containing 4.5 g L^−1 of glucose and supplemented with a non-essential amino acid mixture, a selection of vitamins and 10% FBS. […] The cells were detached with Trypsin-Versene (EDTA) solution for 5 min at 37 °C.
# Prior to the cytotoxicity assays 10 mM stock solutions of the tested compounds were prepared in DMSO. […] The positive control was doxorubicin (Merck), and CuCl2 was also tested. All cancer cells were treated with Trypsin-Versene (EDTA) solution. […] The final volume was 200 μL in the wells containing compounds and cells. The MCF-7 and MRC-5 cells were seeded overnight prior to the assay. The following day, the serial dilution of the compounds were made in separate plates and added to the cells. The culture plates were incubated at 37 °C for 72 h; and at the end of the incubation period, 20 μL of 5 mg mL^−1 3-(4,5-dimethylthiazol-2-yl)-2,5-diphenyltetrazolium bromide (MTT) solution was added to each well and incubated for 4 h at 37 °C. The plates were further incubated at 37 °C overnight following the addition of 100 μL of sodium dodecyl sulfate (SDS) solution (10% in 0.01 M HCl). The optical density (OD) was measured at 450 nm (ref. 620 nm) with a Multiscan EX ELISA reader to follow the cell growth. […] The sigmoidal dose–response model (comparing variable and fixed slopes) of the GraphPad Prism software[88] was used to fit the curves. The IC50 values are averages from at least 3 independent experiments.
# [5] = Thermodynamic solubility by UV-vis in saturated solutions; type: physicochemical; settings: 20 mM HEPES buffer, 25 °C, aqueous buffer, thermodynamic from solid; pH 7.4 (20 mM HEPES), aqueous solution, T = 298 K, I = 0.10 M (KCl); read-out: Thermodynamic solubility S 7.4
# Description: The thermodynamic solubility (S) of the studied compounds was determined in saturated solutions at pH 7.40 (20 mM HEPES buffer) in the absence of DMSO at 25.0 ± 0.1 °C. UV–vis spectrophotometry was applied to determine the concentration of the compounds using calibrating samples of the compounds of known concentrations dissolved in 100% DMSO and 50% (v/v) DMSO/buffered aqueous solutions.
# [6] = Stability constants and pKa of Cu(II) complexes by UV-vis titrations; type: physicochemical; settings: 30:70% (v/v) DMSO/H2O
# Description: (§3) The UV–vis spectra were recorded on an Agilent Cary 8454 diode array spectrophotometer between 200 and 800 nm. Spectrophotometric titrations were carried out on samples containing the ligand (HL^1, HL^2, HL^5 or HL^1(7)) or the ligand and Cu(II) ions together at different ligand-to-metal ratios (1 : 1, 1.5 : 1, 2 : 1) by a KOH solution in a DMSO : water 30 : 70 (v/v) mixture as solvent at 25.0 ± 0.1 °C in the pH range from 1.7 to 12.7 using 0.1 M KCl ionic strength. The concentration of ligands was 10 μM. The path length was 5 cm. For pH measurements and titrations, an Orion 710A pH-meter equipped with a Metrohm combined electrode (type 6.0234.100) and a Metrohm 665 Dosimat burette was used. Blank titrations (HCl vs. KOH) were performed similarly to the method proposed by Irving et al. for pure aqueous solutions to calibrate the electrode system to the pH = −log[H+] scale in the DMSO–water solvent mixture.[83] The water ionization constant (pKw) was determined to be 14.52 ± 0.05 on average, which is in line with the literature data.[84] During the titrations argon was passed over the solutions. The computer program PSEQUAD was used to calculate the proton dissociation constants (pKa) of the ligands, the overall stability constants (log β) of the Cu(II) complexes and the individual spectra of the various species present in solution.[85] In the general equilibrium pM + qL + rH ⇌ MpLqHr the stability constants is defined as β(MpLqHr) = [MpLqHr]/[M]^p[L]^q[H]^r, where M denotes the Cu(II) ion and L the completely deprotonated ligand. The calculations were always performed from experimental data where no precipitation was observed during titration.
# [7] = Proton dissociation constants of ligands by UV-vis titrations; type: physicochemical; settings: DMSO:water 30:70 (v/v) mixture, 30:70% (v/v) DMSO/H2O, T = 298 K, I = 0.10 M (KCl)
# Description: as §3, with “In the general equilibrium pM + qL + rH ⇌ MpLqHr the stability constants is defined as β(MpLqHr) = [MpLqHr]/[M]^p[L]^q[H]^r, where M denotes the Cu(II) ion and L the completely deprotonated ligand. The calculations were always performed from experimental data where no precipitation was observed during titration.” left out
# [8] = tested on: ct-DNA; assay: Ethidium displacement from ct-DNA by spectrofluorimetry; type: binding, calf; settings: cDNA = 0.5 μM, cethidium = 0.25 μM, 298 K, 10 mM HEPES, pH 7.40
# Description: Fluorescence measurements were carried out on a Fluoromax (Horiba Jobin Yvon) fluorimeter. Stock solutions of the complexes and ligands were prepared in pure DMSO (c = 1 or 0.5 mM). Stock solution of ct-DNA was prepared as described recently.[86] The sample volume was […] and contained 0.5 μM ct-DNA expressed in base pairs, 0.25 μM ethidium and different concentrations of complexes 1, 2, 4, 5, 6, 4(6), 4(7) or ligands (HL^1, HL^2, HL^5, HL^6) in 10 mM HEPES buffer (pH 7.40). DMSO content of the samples varied between 0 and 1% (v/v). The excitation wavelength was 510 nm, and the fluorescence emission was measured in the range of 530–750 nm. Corrections for self-absorbance and inner filter effect were performed as described previously.[87]
# [9] = tested on: tubulin (colchicine site); assay: Inhibition of [3H]colchicine binding to tubulin; settings: 0.5 μM tubulin, 5 μM [3H]colchicine
# Description: The methods used to determine the IC50 values for tubulin assembly and inhibition of [^3H]colchicine binding were recently described in detail.[96] In brief, for the assembly assay, 0.25 mL reaction mixtures contained 1.0 mg mL^−1 (10 μM) tubulin, 0.8 M monosodium glutamate (pH 6.6 with HCl in 2.0 M stock solution), 4% (v/v) DMSO (compound solvent), varying compound concentrations, and 100 μM GTP. All components except GTP were preincubated at 30 °C for 15 min in a 0.24 mL volume. Reaction mixtures were then placed on ice, and the GTP was added in a 10 μL volume. Assembly was monitored in Beckman DU7400/7500 spectrophotometers equipped with electronic temperature controllers and driven by a custom program. The samples were transferred to cuvettes held at 0 °C, and the temperature was jumped to 30 °C over about 30 s. Change in turbidity was measured for 20 min at 350 nm, and the IC50 was defined as the compound concentration that reduced the extent of reaction by 50%. For the colchicine binding assay, reaction mixtures contained 0.05 mg mL^−1 (0.5 μM) tubulin, 5.0 μM [^3H]colchicine, 5% (v/v) DMSO (compound solvent), compound as indicated, and components found to stabilize the colchicine binding activity of tubulin. Incubation was for 10 min at 37 °C, at which time the amount of colchicine bound to the tubulin is 40–60% of maximum. Each reaction mixture was diluted with 2.0 mL of ice cold water and poured onto a single Whatman DEAE-cellulose filter (tubulin binds tightly to the filter, and unbound colchicine passes through). Gravity filtration was used for the samples, and the filters were then washed with three 2.0 mL aliquots of ice cold water (vacuum aspiration). The filters were counted in a Beckman scintillation counter, with correction for the amount of radiolabel bound to filters in the absence of tubulin.
# [10] = Cu(II) complex of the ligand, T = 298 K, I = 0.10 M (KCl)
# [11] = selectivity factor normal vs cancer cells
Compound,IC50 [1],IC50 [2],IC50 [3],IC50 [4],solubility thermodynamic [5],"log β [Cu(HL)]^2+ [6, 10]","log β [Cu(L)]^+ [6, 10]","log K′ [Cu(L)]^+ ([6]; K′: H2(HL)^2+ + Cu^2+ ⇌ [Cu(L)]^+ + 3H^+, 298 K)",pKa ([7]; read-out: pKa1 H2(HL)^2+),pKa ([7]; read-out: pKa2 H(HL)^+),Displacement of intercalated ethidium from ct-DNA (in words) [8],Inhibition of colchicine binding % inhibition ± SD ([9]; 5 μM inhibitor),Inhibition of colchicine binding % inhibition ± SD ([9]; 25 μM inhibitor),"SF (Colo320) = IC50 MRC-5/IC50 Colo320 [2, 11]","SF (Colo205) = IC50 MRC-5/IC50 Colo205 [3, 11]","SF (MCF-7) = IC50 MRC-5/IC50 MCF-7 [4, 11]"
"COc1cccc2c1C(=O)c1c(O)c3c(c(O)c1C2=O)C[C@@](O)(C(=O)CO)C[C@@H]3O[C@H]1C[C@H](N)[C@H](O)[C@H](C)O1 [Doxorubicin, doxorubicin, reference compound]",1.16 ± 0.11 µM,3.3 ± 0.1 µM,0.82 ± 0.02 µM,0.21 ± 0.03 µM,,,,,,,,,,,,
C(=N\N=C1/NCCc2ccccc2-c2c1[nH]c1ccccc21)/c1ccccn1 [HL^1],40 ± 1 µM,5.6 ± 0.1 µM,30 ± 2 µM,1.3 ± 0.1 µM,8 µM,8.55 ± 0.02,4.14 ± 0.02,−2.97,2.07 ± 0.01,5.04 ± 0.02,could not displace the intercalated ethidium cation,18 ± 5%,46 ± 5%,7.26,1.37,31.03
